# In patent publication US10004739B2, “Methods for treating cancer by inhibiting FGFR3/TACC3 fusion protein” (Astellas Pharma Inc., priority 2012, dated 2018):
# Assays:
# [1] = test system: FGFR3-TACC3_v3 (N-FLAG) fusion polypeptide; assay: In vitro kinase activity of FGFR3-TACC3_v3 (N-FLAG) fusion polypeptide (HTRF KinEASE-TK, peptide substrate); type: biochemical, human; conditions: ATP 100 μM
# [2] = test system: cells expressing FGFR3-TACC3 fusion gene; conditions: reported in Science 2012; 337:1231-5; cited from earlier work
# [3] = test system: RT-112 cells; assay: Anchorage-independent proliferation of RT-112 bladder cancer cell line, spheroid plate, CellTiter-Glo; type: cell-based; conditions: Homo sapiens, RT-112, 120 h; final concentration 100 nM; Example 16: 2×10^3 cells per well, 5 days; read-out: growth inhibition rate (%), RT-112
# Method: Moreover, as a positive control, a well added only with the medium was prepared. […] As a negative control, DMSO as a vehicle of the compound was added thereto at the same concentration (0.1%) at the time of adding the compound. Thereafter, the cells were cultured for 5 days at 37° C. in the presence of 5% CO2, and a reagent for cell count measurement (CellTiter-Glo™ Luminescent Cell Viability Assay; Promega Corporation) was added thereto. The resultant was stirred for 20 minutes, and the cell count was measured using a luminometer.
# (§4) Moreover, the respective compounds were added such that the final concentration thereof became 100 nM, 10 nM, and 1 nM.
# [4] = test system: FGFR3-TACC3_v1 expression/NIH3T3 cells (tumors); assay: Anti-tumorigenic activity in nude mice bearing subcutaneous tumors; type: in vivo; conditions: 30 mg/kg orally once a day for 11 days
# Source text: (§1) Cg-Foxn1Nu/Crlcrlj (Nu/Nu) nude mice (Charles River Laboratories, Japan) by means of subcutaneous injection performed in the back of the mice. Three days after the inoculation, AZD4547 and BGJ398 which are FGFR3-TACC3 fusion polypeptide inhibitors were started to be administered. For the test, 4 to 5 mice were assigned to each of the vehicle group and the compound group, AZD4547 and BGJ398 were suspended in a vehicle composed of 0.5% methyl cellulose (Shin-Etsu Chemical Co., Ltd.)/99.5% distilled water, and each of the compounds was orally administered at a dosage of 30 mg/kg. The administration was performed once a day for 11 days, and the body weight of mice and a tumor diameter were measured every 2 or 3 days. A tumor volume was calculated using the following formula. [Tumor volume (mm^3)]=[major axis of tumor (mm)]×[minor axis of tumor (mm)]^2×0.5
# [5] = test system: FGFR3-TACC3_v2 expression/NIH3T3 cells (tumors); assay: as above; type: in vivo; conditions: 30 mg/kg orally once a day for 11 days
# Source text: as §1
# [6] = test system: FGFR3-TACC3_v3 expression/NIH3T3 cells (tumors); assay: as above; type: in vivo; conditions: 30 mg/kg orally once a day for 11 days
# Source text: as §1
# [7] = target: T1, FGFR3-TACC3 fusion polypeptide v1 (Homo sapiens, UniProt P22607); assay: Kinase inhibition in tumor: phosphorylated FGFR3/total FGFR3 by ELISA; type: in vivo, nude mice; conditions: 4 hours after the final administration; dosing as Example 13
# T1 construct: expressed in transfected cells; host or cells: NIH3T3 cells infected with FGFR3-TACC3_v1/pMXs-puro retrovirus, inoculated into nude mice
# Method: (§2) For the test, 5 mice were assigned to each of the vehicle group and the compound group, and 4 hours after the final administration, tumors were extracted by dissection. Thereafter, by using a lysis solution (Cell Lysis Buffer; Cell Signaling Technology, Inc., Phosphatase Inhibitor Cocktail; Thermo Fisher Scientific Inc., Complete; Roche, Ltd.), protein extracts of the tumors were rapidly prepared, and the total FGFR3 level and a phosphorylated FGFR3 level of the tumors were measured using an ELISA kit (R&D Systems). ELISA was performed according to the attached procedure manual, but detection was performed in a different way in which the chemiluminescence detection is conducted using a chemiluminescent reagent (BM chemiluminescence ELISA substrate; Roche, Ltd.) and a luminometer (ARVO; PerkinElmer Inc.).
# (§3) A level obtained by correcting the phosphorylated FGFR3 level by using the total FGFR3 level (phosphorylated FGFR3 level/total FGFR3 level) was taken as a phosphorylation level.
# [8] = target: T2, FGFR3-TACC3_v3 (Homo sapiens, UniProt P22607); assay: as above; type: in vivo, nude mice; conditions: 4 hours after the final administration; dosing as Example 13
# T2 construct: in order to express a full length of ORF of FGFR3-TACC3_v3 as a protein; expressed in transfected cells; host or cells: NIH3T3 cells infected with FGFR3-TACC3_v3/pMXs-puro retrovirus, inoculated into nude mice
# Method: as §2, §3
# [9] = target: T3, FGFR3-TACC3_v2 (Homo sapiens, UniProt P22607, F384L); assay: as above; type: in vivo, nude mice; conditions: 4 hours after the final administration; dosing as Example 13
# T3 construct: in order to express a full length of ORF of FGFR3-TACC3_v2 as a protein; expressed in transfected cells; host or cells: NIH3T3 cells infected with FGFR3-TACC3_v2/pMXs-puro retrovirus, inoculated into nude mice
# Method: as §2, §3
# [10] = test system: FGFR3-TACC3_v3 expression/NIH3T3 cells; assay: Anchorage-independent cell proliferation, spheroid plate, CellTiter-Glo; conditions: Mus musculus, NIH3T3, 96 h, read-out: growth inhibition rate (%), v3
# Method: (§5) The FGFR3-TACC3_v1 expression/NIH3T3 cells were seeded in a 96-well spheroid plate (Sumilon Cell-Tight Spheroid 96U; SUMITOMO BAKELITE CO., LTD.) with D-MEM containing 10% fetal bovine serum, such that the cell count in each well became 1×10^3. Moreover, as a positive control, a well added only with the medium was prepared. […] As a negative control, DMSO as a vehicle of the compound was added thereto at the same concentration (0.1%) as set at the time of adding the compound. Thereafter, the cells were cultured for 4 days at 37° C. in the presence of 5% CO2, and a reagent for cell count measurement (CellTiter-Glo™ Luminescent Cell Viability Assay; Promega Corporation) was added thereto. The resultant was stirred for 20 minutes, and the cell count was measured using a luminometer.
# as §4
# [11] = test system: FGFR3-TACC3_v1 expression/NIH3T3 cells; assay: as above; conditions: Mus musculus, NIH3T3, 96 h, read-out: growth inhibition rate (%), v1
# Method: as §5, §4
# [12] = test system: FGFR3-TACC3_v2 expression/NIH3T3 cells; assay: as above; conditions: Mus musculus, NIH3T3, 96 h, read-out: growth inhibition rate (%), v2
# Method: as §5, §4
# [13] = test system: FGFR3-TACC3_v2 (N-FLAG) fusion polypeptide; assay: In vitro kinase activity of FGFR3-TACC3_v2 (N-FLAG) fusion polypeptide (HTRF KinEASE-TK, peptide substrate); type: biochemical, human; conditions: ATP 100 μM
# [14] = test system: FGFR3-TACC3_v1 (N-FLAG) fusion polypeptide; assay: In vitro kinase activity of FGFR3-TACC3_v1 (N-FLAG) fusion polypeptide (HTRF KinEASE-TK, peptide substrate); type: biochemical, human; conditions: ATP 100 μM
smiles,measurement,setting,value
CCN1CCN(c2ccc(Nc3cc(N(C)C(=O)Nc4c(Cl)c(OC)cc(OC)c4Cl)ncn3)cc2)CC1 [BGJ398],Inhibition against peptide substrate FGFR3-TACC3 v3,[1]; final concentration 1 nM,13%
same,Inhibition against peptide substrate FGFR3-TACC3 v3,[1]; final concentration 10 nM,38%
same,Inhibition against peptide substrate FGFR3-TACC3 v3,[1]; final concentration 100 nM,75%
same,proliferation of cells expressing FGFR3-TACC3 fusion gene,[2],inhibited the proliferation
same,inhibition at 0.1 µM,[3],90%
same,inhibition of proliferation of tumors (tumor volume),[4],90%
same,inhibition of proliferation of tumors (tumor volume),[5],90%
same,inhibition of growth of tumors (tumor volume),[6],88%
same,reduction of tyrosine auto-phosphorylation in the tumor compared to the vehicle group,[7],77%
same,reduction of tyrosine auto-phosphorylation in the tumor compared to the vehicle group,[8],85%
same,reduction of tyrosine auto-phosphorylation in the tumor compared to the vehicle group,[9],66%
same,inhibition at 0.1 µM,[10],87%
same,inhibition at 0.1 µM,[11],92%
same,inhibition at 0.1 µM,[12],90%
same,Inhibition against peptide substrate FGFR3-TACC3 v2,[13]; final concentration 1 nM,8%
same,Inhibition against peptide substrate FGFR3-TACC3 v2,[13]; final concentration 10 nM,44%
same,Inhibition against peptide substrate FGFR3-TACC3 v2,[13]; final concentration 100 nM,79%
same,Inhibition against peptide substrate FGFR3-TACC3 v1,[14]; final concentration 1 nM,26%
same,Inhibition against peptide substrate FGFR3-TACC3 v1,[14]; final concentration 10 nM,47%
same,Inhibition against peptide substrate FGFR3-TACC3 v1,[14]; final concentration 100 nM,58%
